Data on two molecules can be found in article PMC12691742, “Anti-Cancer Outcome of Glucocorticoid Receptor Transrepression by Synephrine Derivatives in Hematological Malignancies” (International Journal of Molecular Sciences, 2025).

Series [1] relates to leukemia and lymphoma cells (Granta, K562). Also on record: method as in PMID 39858397. The settings on record: leukemia and lymphoma cells; read-out: cell viability IC50; cited from earlier work.
In series [2] the test system is GR phosphorylated by Ser211 in K562 and Granta cells. Nature of the series: Western blot of nuclear phospho-GR (Ser211). To be noted: 10 h; Dex 10 µM, 4S-C2 50 µM, 8S-E3 50 µM, 10S-E2 15 µM, 13S-G2 25 µM. It is filed as cell-based. As for the experimental part: (§1) Figure 3 Effects of synephrine derivatives on GR transactivation in Granta lymphoma and K562 leukemia cells. (A) Q-PCR analysis of FKBP51, GILZ, and DDIT4 mRNA expression in K562 and Granta cells. […] The Q-PCR results were normalized to the expression of the housekeeping gene RPL27 and are presented as fold changes compared to the control. The mean ± SD was calculated for three individual samples/condition (n = 3). Statistically significant differences compared to the control: * p < 0.05, ** p < 0.01. (B) The levels of the nuclear fraction of phospho-GR (Ser211) were determined using Western blot analysis (n = 3; characteristic images are presented in the figure). Histone H3 was used as a loading control.
Western blot analysis was performed as previously described. Proteins were resolved using SDS-PAGE. Membranes were blocked with 5% nonfat milk solution and then incubated with primary antibodies against phosphorylated GR (pGR, Ser211) (“Santa Cruz Biotechnology”, Santa Cruz, CA, USA) overnight at 4 °C. To verify equal protein loading and adequate transfer, the membranes were probed with Histone H3 antibodies (“Cell Signaling”, Boston, MA, USA). Goat anti-rabbit IgGs (“Jackson Immuno Research”, West Grove, PA, USA) were used as secondary antibodies. Signals were detected using ECL reagent and an ImageQuant LAS4000 system (“GE HealthCare”, Chicago, IL, USA). ImageJ 1.54h software was used for densitometry. The experiments were performed in triplicate.
7 K562, pGR nuclear 5 Granta, pGR nuclear
Supplementary Figure S 22. Quantification of Western blot analysis. K562 and Granta cells […]
μM) and 13S-G2 (25 μ M) for 10 h. Quantification of Western blot anal ysis of p- GR protein levels was done usin g Im a ge J f ree so ftwar e. Statisticall y significant diff eren ces as compared to control: […]
On the technique in general: Immunoblotting shows a protein as a band on a membrane.

A further series concerns the target T1, GR (Homo sapiens, UniProt P04150).
T1 construct: endogenous in cells; host or cells: K562
T1 sequence (P04150 1-777): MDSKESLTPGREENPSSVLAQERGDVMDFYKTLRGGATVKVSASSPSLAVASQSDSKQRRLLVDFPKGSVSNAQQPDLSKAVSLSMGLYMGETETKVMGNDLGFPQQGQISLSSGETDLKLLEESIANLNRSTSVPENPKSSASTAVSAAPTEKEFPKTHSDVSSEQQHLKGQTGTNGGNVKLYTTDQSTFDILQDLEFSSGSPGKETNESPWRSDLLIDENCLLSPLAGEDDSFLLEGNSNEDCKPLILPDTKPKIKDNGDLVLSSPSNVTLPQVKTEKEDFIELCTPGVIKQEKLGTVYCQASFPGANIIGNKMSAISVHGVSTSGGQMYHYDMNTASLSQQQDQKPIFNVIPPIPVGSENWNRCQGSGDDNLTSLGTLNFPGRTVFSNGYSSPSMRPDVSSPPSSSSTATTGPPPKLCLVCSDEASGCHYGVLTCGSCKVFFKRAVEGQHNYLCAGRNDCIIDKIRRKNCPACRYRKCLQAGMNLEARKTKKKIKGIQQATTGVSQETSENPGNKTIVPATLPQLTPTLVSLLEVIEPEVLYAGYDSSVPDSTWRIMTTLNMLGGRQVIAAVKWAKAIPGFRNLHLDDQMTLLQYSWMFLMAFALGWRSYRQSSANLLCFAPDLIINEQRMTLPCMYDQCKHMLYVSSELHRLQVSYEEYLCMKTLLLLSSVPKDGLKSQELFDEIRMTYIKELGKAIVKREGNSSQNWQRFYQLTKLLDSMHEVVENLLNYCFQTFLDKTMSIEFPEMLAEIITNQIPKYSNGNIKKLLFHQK
Description: GR radioligand binding assay, competition with [3H]Dex in K562 cells. As for the experimental part:
(A,B). […] The stability of the complex was simulated using molecular dynamics in the GROMACS program. (C) GR binding affinity was estimated using a radioligand binding assay. […] Cell lysate radioactivity was measured using a RackBeta 1215 LC (LKB Wallac, Turku, Finland) spectrometer for 4 min. […] The experiments were performed in triplicate (n = 3).
After 90 min of incubation, the cells were washed twice by centrifugation in cold serum-free medium (1500 rpm, 5 min). The cells were then lysed with RIPA buffer (50 mM Tris (pH 8.0), 150 mM NaCl, 1 mM ethylenediaminetetraacetic acid, 0.1% sodium dodecyl sulfate, 0.5% sodium deoxycholate, 1% triton-X100, 10% glycerin, and protease inhibitor) for 20 min. Lysates were transferred to scintillation liquid, and radioactivity was measured using a RackBeta 1215 LC spectrometer for 4 min. […] IC50 was determined using GraphPad Prism software, Ver.7.0. […] “Top” meant the highest value in dpm and was equal to 100%, while the “bottom” was considered as the lowest value (0%). […] The IC50 values for each ligand were determined by plotting these curves. The experiments were performed in triplicate.

Series [3] concerns DDIT4 expression in K562 cells. Nature of the series: Q-PCR of DDIT4 in K562 cells. The format is cell-based. To be noted: 24 h, 8S-E3 25 µM.
Text: (§2) Q-PCR results were confirmed by Western blot analysis of the level of GR phosphorylated by Ser211, known as a crucial protein modification for GR TA realization because of its binding to short cysteine-rich fragments of the coactivator CREB-binding protein [41].
as §1
(§3) Total RNA isolation from cell cultures and murine bones, reverse transcription, and Q-PCR were performed as described in [36]. Primers were designed using NCBI Primer-BLAST https://www.ncbi.nlm.nih.gov/tools/primer-blast/, accessed on 25 August 2025 (Supplementary Table S1). Results were normalized to the expression of the housekeeping RPL27 и Rpl27 genes. The experiments were performed in triplicate.

Series [4] deals with DDIT4 expression in Granta cells. Description: Q-PCR of DDIT4 in Granta cells. It is filed as cell-based. To be noted: 24 h, 8S-E3 25 µM.
Text: as §2, §1, §3

For another series, the system named is Granta cells. Description: Cell cycle analysis by PI flow cytometry in Granta cells. The format is cell-based. To be noted: 24 h, Dex 50 µM, 4S-C2 25 µM, 8S-E3 12.5 µM, 10S-E2 6.25 µM, 13S-G2 1 µM. As for the experimental part:
(§4) Figure 5 Pro-apoptotic and anti-cancer effects of synephrine derivatives in vitro and in vivo. (A) Effect of 4S-C2, 8S-E3, 10S-E2, and 13S-G2 on cell cycle progression in K562 and Granta cells after 24 h of incubation. The cells were fixed with ethanol, stained with propidium iodide, and analyzed using flow cytometry. Statistically significant difference compared to control: *—p < 0.05, **—p < 0.01 (n = 3). (B) In vivo anti-cancer activity was evaluated using the transplantable P388 murine lymphoma model. […] Tumor nodule size was measured twice a week using digital calipers. Statistically significant differences compared to the control: * p < 0.05, ** p < 0.01.
The distribution of cells by cell cycle phases was evaluated using propidium iodide (PI) staining, as described in [19]. […] After incubation, the cells were resuspended in 70% ethanol and fixed for 2h at 4 °C. Cells were then washed twice with cold PBS, pH 7.4, and stained with 500 µL of cold propidium iodide (PI) solution (50 µg/mL PI, 1% Triton X-100, and 100 µg/mL RNase A in PBS). The cell cycle distribution of cells in samples was analyzed using an FACSCalibur Flow Cytometer (“BD Biosciences”, San Jose, CA, USA). The experiments were performed in triplicate.

Series [5] concerns Rankl, Mmp9, Tsc2, Trap, Bglap mRNA expression in bone tissue. Description: Glucocorticoid-induced osteoporosis model: Q-PCR of marker genes in bone tissue. It is filed as in vivo, mice. To be noted: 5 weeks, Dex 20 mg/kg. As for the experimental part: (§5) (A) H&E bone staining and quantification of cortical bone thickness. (B) Q-PCR analysis of Rankl, Mmp9, Tsc2, Trap, and Bglap mRNA expression in bone tissue. […] (C) H&E skin staining and quantification of dermal adipose thickness (50 images per treatment group of 10 animals). Statistically significant differences compared to the control: * p < 0.05, ** p < 0.01.
Total RNA isolation from cell cultures and murine bones, reverse transcription, and Q-PCR were performed as described in [36]. […] Results were normalized to the expression of the housekeeping RPL27 и Rpl27 genes. The experiments were performed in triplicate.
(§6) The protocol for the experiment was approved by the local N.N. Blokhin National Medical Research Center Ethics Committee and corresponded to the guidelines for the welfare and use of animals in cancer research adopted by The United Kingdom Coordinating Committee on Cancer Prevention Research. […] Body weight was recorded twice a week for toxicity control.

The subject of the next series is BALB/c female mice. Nature of the series: Glucocorticoid-induced osteoporosis model: bone and skin morphometry, body weight. The format is in vivo. To be noted: Dex 20 mg/kg.
Text: as §5, §6
Bone and skin samples from the GIOP experiment were fixed in formaldehyde and embedded in paraffin, and sections were stained with hematoxylin and eosin. After formaldehyde fixation, the bone samples were decalcified in decalcification buffer (0.5 M EDTA, 0.7 mM NaOH, pH7.0) for 14 days, washed twice with PBS, and further processed according to the standard histology protocol. The dermal adipose and bone thickness were quantified in sections stained with hematoxylin and eosin. At least five individual fields per slide of each sample/treatment (at least 50 images/treatment group) were analyzed using Axioplan2 microscope software (“Carl Zeiss”, Jena, Germany). The dermal adipose or bone thickness in treated animals is presented as a percentage of the control animals.

For the next series, the system named is P388 murine lymphoma. Nature of the series: Transplantable P388 murine lymphoma model. It is filed as in vivo, mice. To be noted: Dex 1 mg/kg. As for the experimental part: as §4
The protocol for the experiment was approved by the local N.N. Blokhin National Medical Research Center Ethics Committee and corresponded to the guidelines for the welfare and use of animals in cancer research adopted by The United Kingdom Coordinating Committee on Cancer Prevention Research. P388 cells were injected i.p. into 5-week-old female DBA/2 mice (“Stolbovaya Farm”, Stolbovaya, Russia). After 15 days, the cells were collected from the peritoneum, washed, and resuspended in PBS. For the experiments, 0.1 mL containing 2 million cells obtained from the ascites was inoculated s.c. in 5-week-old female BDF1 mice (“Stolbovaya Farm”, Stolbovaya, Russia). […] Body weight was recorded twice a week for toxicity determination. Tumor size was measured three times per week using digital calipers.

Series [6] has as its system FKBP51, GILZ, DDIT4 mRNA expression in K562 and Granta cells. Nature of the series: Q-PCR of GR transactivation marker genes. The format is cell-based. The settings on record: 4 h (FKBP51, GILZ) or 24 h (DDIT4); Dex 10 µM, 10S-E2 0.1 µM; vs control.
Text: as §2, §1, §3

Where [7] appears, read: i.p. every 24 h for 5 weeks, 10S-E2 10 mg/kg.

pIC50: −log10 of the molar value. Entries after “also recorded” stand apart in the source; their conditions may differ.

In general, pIC50 refers to −log10 of the IC50, conventionally taken in molar units. In the case of `OCCNCC(O)c1ccc(OCc2ccccc2)cc1` (stereo not drawn) [8S-E3, 1-(4-(benzyloxy)phenyl)-2-((2-hydroxyethyl)amino)ethanol], the pIC50 in [1] was 3.92 to 4.10; on GR, 7.10. Besides, in series [2], the “GR phosphorylation level at Ser211” value is given as “weak increase”. In [3], the DDIT4 expression entry is reported as “strongly attenuated DDIT4 expression by more than three times”. Moreover, the “decrease in DDIT4 expression” value in series [4] is 1,5 fold.
Turning to `C[C@@H]1C[C@H]2[C@@H]3CCC4=CC(=O)C=C[C@]4(C)[C@@]3(F)[C@@H](O)C[C@]2(C)[C@@]1(O)C(=O)CO` [Dex, dexamethasone, reference compound], the “level of apoptosis (sub-G1-phase cell population)” value with Granta cells is “higher than that in the control samples”. Also, the “GR phosphorylation level at Ser211” value in [2] is on record as “weak increase”. For the same molecule, the “Bglap mRNA expression in bone tissue” value in [5] is recorded as “Downregulation”. Further, in series [5] (10S-E2 10 mg/kg), the “Mmp9 mRNA expression in bone tissue” value was “tendency toward Mmp9 and Tsc2 upregulation”; the “Rankl mRNA expression in bone tissue” value is listed as “upregulation”; the “Trap mRNA expression in bone tissue” value is reported as “upregulation”; the “Tsc2 mRNA expression in bone tissue” value was “tendency toward Mmp9 and Tsc2 upregulation”. Further, the “animal body weight vs control” value in the series on BALB/c female mice (GIOP study, 10S-E2 10 mg/kg i.p. every 24 h for 5 weeks) is “no statisticall y si gnificant differences; also recorded: similar”. In addition, in the series on BALB/c female mice (setting [7]), the “loss of cortical bone thickness” value worked out at 30% and the “reduction of dermal adipose tissue / skin atrophy” value is recorded as “approximately 70%”. In addition, in the series on P388 murine lymphoma (P388 model, 10S-E2 10 mg/kg i.p. 3 times per week), the “animal body weight change vs control” value is listed as “no statisticall y si gnificant differences”. For the same molecule, the “inhibition of tumor growth” value in the series on P388 murine lymphoma (s.c. P388 in BDF1 mice, i.p. 3 times per week, 10S-E2 10 mg/kg) is recorded as 60–70%. Moreover, in series [6], the “expression of TA marker genes FKBP51, GILZ, DDIT4” value is recorded as 5-30 fold.
